Measured values: article PMC10445491 (Frontiers in Chemistry, 2023)
“Also recorded” adds a separate entry of the source. Like-named read-outs stand apart in the source and are kept apart here.

What was measured:
[1] = target: neuraminidase from Clostridium perfringens (BNA); format: biochemical; conditions: for Kinetic mode: Lineweaver-Burk and Dixon plots
[2] = target: neuraminidase from Clostridium perfringens (BNA, EC 3.2.1.18); format: biochemical; conditions: for fold higher inhibition than compound 6: ratio of IC50 vs compound 6
[3] = target: neuraminidase from Clostridium perfringens (BNA) (Clostridium perfringens, UniProt P10481); format: binding
Chain of neuraminidase from Clostridium perfringens (BNA) (Clostridium perfringens, UniProt P10481) (P10481 whole entry, looked up): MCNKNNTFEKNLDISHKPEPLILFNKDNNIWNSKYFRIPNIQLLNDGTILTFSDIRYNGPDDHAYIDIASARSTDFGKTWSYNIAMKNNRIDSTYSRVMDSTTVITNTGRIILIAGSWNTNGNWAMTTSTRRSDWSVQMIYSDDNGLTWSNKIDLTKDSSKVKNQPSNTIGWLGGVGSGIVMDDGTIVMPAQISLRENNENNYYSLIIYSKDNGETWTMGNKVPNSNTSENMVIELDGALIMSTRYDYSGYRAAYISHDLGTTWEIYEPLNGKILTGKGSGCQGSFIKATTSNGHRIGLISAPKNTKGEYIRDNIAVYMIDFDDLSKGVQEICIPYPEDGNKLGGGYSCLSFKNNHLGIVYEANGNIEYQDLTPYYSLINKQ

[4] = Dixon plots, read-out: K i (inhibition constant)
[5] = sodium acetate buffer pH 5.0, substrate 100 μM, BNA 0.02 unit/mL, triplicate, read-out: IC50

Row | Molecule | Ki [1, 4] [µM] | Kinetic mode [1] | IC50 [2, 5] [µM] | K A (affinity constant) [3] [L/mol] | K SV (Stern-Volmer constant) [3] [L/mol] | n (binding number of xanthone to the BNA) [3] | fold higher inhibition than compound 6 [2] [fold] | fold more effective relative to gentisein ([2]; ratio of IC50 vs gentisein) [fold] | Change of BNA fluorescence (FS) intensity with increasing inhibitor concentration [3] | Time-dependent (slow-binding) behaviour ([1]; preincubation 0-75 min) | Reversibility of inhibition ([1]; residual activity vs enzyme concentration (0.01, 0.02, 0.04 unit/mL)) | k 3 ([1]; slow-binding inhibition, forward rate of enzyme-inhibitor complex formation) [M⁻¹ s⁻¹] | Ki ([1]; slow-binding inhibition, preincubation with 0, 0.2, 0.4, 0.8 µM inhibitor, read-out: K i app) [µM] | k 4 ([1]; slow-binding inhibition, reverse rate) [min⁻¹] | fold more effective than compound 3 ([2]; ratio of IC50 vs compound 3) [fold] | IC50 ([2]; text in the panels of supplementary Figure S36, read-out: IC50 printed in Figure S36) [µM]
1 | C=C(CCC=C(C)C)C(O)Cc1c(O)c(CC=C(C)C)c(O)c2c(=O)c3cc(O)ccc3oc12 (stereo not shown) [Compound 5, cratoxanthon F] | 9.1 | Non-competitive | 9.2 ± 0.2 | 1030 | 10230 | 0.4992 | – | – | – | – | – | – | – | – | – | –
2 | C=C(C)CC(O)c1c(O)c(C/C=C(\C)CCC=C(C)C)c2oc3ccc(O)cc3c(=O)c2c1O (stereo not shown) [Compound 4, cratoxanthone A] | 4.2 | Non-competitive | 3.8 ± 0.1 | 55450 | 27140 | 0.7819 | 3 | – | – | – | – | – | – | – | – | –
3 | CC(C)=CCC/C(C)=C/Cc1c(O)c(CC=C(C)C)c(O)c2c(=O)c3cc(O)ccc3oc12 [Compound 6, cochinechinone A] | 9.6 | non-competitive inhibitor | 9.8 ± 0.3 | 1800 | 9860 | 0.4337 | – | 2 | – | – | – | – | – | – | – | –
4 | (E)-1,3,7-trihydroxy-4-(7-hydroxy-3,7-dimethyloct-2-en-1-yl)-2-(3-methylbut-2-en-1-yl)-9H-xanthen-9-one [Compound 2] | 40.7 | Non-competitive | 38.9 ± 0.6 | 20 | 970 | 0.1796 | – | – | did not decrease | – | – | – | – | – | – | –
5 | C=C(C)C(O)CC/C(C)=C/Cc1c(O)c(CC=C(C)C)c(O)c2c(=O)c3cc(O)ccc3oc12 (stereo not shown) [Compound 1, (E)-1,3,7-trihydroxy-4-(6-hydroxy-3,7-dimethylocta-2,7-dien-1-yl)-2-(3-methylbut-2-en-1-yl)-9H-xanthen-9-one] | 0.17 | competitive inhibitor | 0.38 ± 0.03 | 244300 | 157920 | 1.2897 | 30 | – | decreased dramatically | reversible slow-binding inhibition; also recorded: simple slow-binding inhibitor; also recorded: simple reversible slow binding behavior | reversible inhibitor | 141000 | 0.144 | 0.0203 | 100 | –
6 | CC(C)=CCc1c(O)c(C/C=C(\C)C/C=C/C(C)(C)O)c2oc3ccc(O)cc3c(=O)c2c1O [Compound 3, 1,3,7-trihydroxy-4-[(2E,5E)-7-hydroxy-3,7-dimethylocta-2,5-dien-1-yl]-2-(3-methylbut-2-en-1-yl)-9H-xanthen-9-one] | 38.2 | Non-competitive | 35.8 ± 0.7 | 20 | 1000 | 0.2168 | – | – | – | – | – | – | – | – | – | –
7 | O=c1c2cc(O)ccc2oc2cc(O)cc(O)c12 [Gentisein, reference compound] | – | – | 21.4 ± 0.5 | 110 | 5350 | 0.3701 | – | – | – | – | – | – | – | – | – | 21.4
